How the values were obtained:
[1] = rat, in vivo
[2] = rat, in vivo; remark: listed apart in the source
[3] = rat, in vivo; remark: listed apart in the source
[4] = two compartment model, nonlinear regression fit
[5] = man and rodents; cited from earlier work
in vivo = conditions: Sprague Dawley, rat, intravenous, 10 mg DTX equivalent/kg

cumulative 24h urinary DTX excretion [1] [% injected dose]	tissue distribution phase half-life (t1/2) [2]	CL ([2]; iv) [mL/min/kg]	V (apparent volume of distribution) ([2]; iv) [L/kg]	t1/2 (terminal elimination half-life) ([2]; iv) [h]	percentage of the total 8h biliary metabolites excreted as HDTX (%HDTX) [3] [%]	CLD (distribution clearance) [4] [mL/h]	VC (volume of the central compartment) [4] [mL]	VP (volume of the peripheral compartment) [4] [mL]	Vmax (nonlinear clearance, all remaining routes) [4] [ng/h]	clearance (in vivo; plasma and bile) [mL/min]	Km (in vivo; plasma) [µg/mL]	Compound	renal clearance contribution to DTX clearance [5] [%]
2.36 ± 0.98	~ 30 min	86.7	3.401	3	82±12							Taxotere	
						2202	760	5811	391464	3.53	0.124	CC(=O)O[C@@]12CO[C@@H]1C[C@H](O)[C@@]1(C)C(=O)[C@H](O)C3=C(C)[C@@H](OC(=O)[C@H](O)[C@@H](NC(=O)OC(C)(C)C)c4ccccc4)C[C@@](O)([C@@H](OC(=O)c4ccccc4)[C@H]21)C3(C)C [DTX, Docetaxel]	< 10
